In PubChem BioAssay (NCI) one finds TGI and GI50 data, which are given here for 15 molecules.

Test systems include CAKI-1 renal; KM12 colon; SNB-19 CNS; 786-0 renal; M14 melanoma; NCI-H226 lung; SF-295 CNS; RXF 393 renal; COLO 205 colon; OVCAR-8 ovarian.
Common to all, as to assay: NCI-60 cell line screen, 48 h

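Exposure lasted 48 hours, with cells grown in 96-well plates and compounds tested at five concentrations. GI50 is the concentration that inhibits growth by half. TGI denotes the concentration required for complete inhibition of growth.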 Where only a bound is given, the exact number is not on record here.

With `NCCCCN(CCCN)/[N+]([O-])=N\O`, the TGI with CAKI-1 renal, with KM12 colon, in the test on SNB-19 CNS, in the test with 786-0 renal, in the test with M14 melanoma and in the test on NCI-H226 lung was > 100 µM throughout. Besides, the TGI in the test with SF-295 CNS, with RXF 393 renal, with COLO 205 colon and in the test on OVCAR-8 ovarian was > 100 µM in each case.

Turning to `COC(=O)C1=C(C)N(NC(=O)OC(C)(C)C)C(=O)C1=P(c1ccccc1)(c1ccccc1)c1ccccc1`, the TGI with CAKI-1 renal, in the test on KM12 colon, in the test on SNB-19 CNS, in the test on 786-0 renal, in the test on M14 melanoma and with NCI-H226 lung was > 100 µM in each case. Besides, the TGI with SF-295 CNS, with RXF 393 renal, in the test with COLO 205 colon and with OVCAR-8 ovarian was > 100 µM in each case.

`NS(=O)(=O)c1ccc(NC2(C(=O)O)CCCC2)cc1`: the TGI in the test on CAKI-1 renal, in the test with KM12 colon, in the test with SNB-19 CNS, with 786-0 renal, with M14 melanoma and with NCI-H226 lung was > 100 µM in each case. In addition, the TGI with SF-295 CNS, in the test on RXF 393 renal, in the test on COLO 205 colon and with OVCAR-8 ovarian was > 100 µM in each case.

Turning to `O=C1OC(C(O)CO)C(=O)C1=O` (stereo not given), the GI50 in the test on CAKI-1 renal was 3220 µM; in the test with KM12 colon, 3500 µM; in the test on SNB-19 CNS, 8280 µM; with 786-0 renal, 3170 µM; in the test on M14 melanoma it was 6700 µM; in the test on NCI-H226 lung, > 10000 µM. In addition, the GI50 was 7430 µM in the test with SF-295 CNS, 1700 µM in the test on RXF 393 renal, 2800 µM in the test with COLO 205 colon and 5270 µM with OVCAR-8 ovarian. The TGI is 9630 µM in the test with CAKI-1 renal; > 10000 µM with KM12 colon; > 10000 µM in the test on SNB-19 CNS; 8770 µM with 786-0 renal; > 10000 µM in the test with M14 melanoma; > 10000 µM in the test with NCI-H226 lung. The TGI with SF-295 CNS is > 10000 µM; in the test on RXF 393 renal it was 3210 µM; with COLO 205 colon, 6730 µM; in the test with OVCAR-8 ovarian, > 10000 µM.

With `Clc1ccc(C2=Nn3c(COc4ccccc4Cl)nnc3SC2)c(Cl)c1`, the GI50 is 25.9 µM in the test on CAKI-1 renal; 16.9 µM in the test on KM12 colon; 30.4 µM in the test with SNB-19 CNS; 25.6 µM with 786-0 renal; 16.4 µM in the test with M14 melanoma; 14.6 µM in the test with NCI-H226 lung. Also, the GI50 is 10.3 µM in the test on SF-295 CNS, 28.6 µM with RXF 393 renal, 14.7 µM in the test on COLO 205 colon and 29.6 µM in the test with OVCAR-8 ovarian. The TGI in the test on CAKI-1 renal was 76.7 µM; in the test with KM12 colon, 34 µM; in the test on SNB-19 CNS, > 100 µM; with 786-0 renal it was 65.4 µM; with M14 melanoma, 41.4 µM; in the test on NCI-H226 lung, 41.6 µM. The TGI in the test on SF-295 CNS is 87 µM; with RXF 393 renal it was > 100 µM; in the test with COLO 205 colon, 33.5 µM; with OVCAR-8 ovarian, > 100 µM.

Consider `COc1ccc(Cn2cc3c(c2-c2ccccc2)CC(C)(C)c2cnoc2-3)cc1`, for which the GI50 in the test on CAKI-1 renal is 1.22 µM; in the test with KM12 colon, 0.783 µM; in the test with SNB-19 CNS, 4.96 µM; in the test on 786-0 renal, 4.1 µM; with M14 melanoma, 2.03 µM; in the test on NCI-H226 lung, 4.19 µM. Besides, the GI50 in the test with SF-295 CNS was 0.732 µM; with RXF 393 renal, 2.45 µM; in the test with COLO 205 colon, 1.65 µM; with OVCAR-8 ovarian it was 4.66 µM. Besides, the TGI in the test on CAKI-1 renal, in the test on KM12 colon, with SNB-19 CNS, with 786-0 renal, with M14 melanoma and in the test on NCI-H226 lung was > 100 µM throughout. Besides, the TGI is 11.6 µM in the test with SF-295 CNS, > 100 µM in the test with RXF 393 renal, 5.1 µM in the test on COLO 205 colon and > 100 µM in the test on OVCAR-8 ovarian.

On to `C=C1C(=O)O[C@@H]2/C=C(\C)CC/C=C(/COC(C)=O)C[C@@H](OC(C)=O)[C@@H]12`, for which the TGI with CAKI-1 renal was 20.2 µM; with KM12 colon, 34.3 µM; in the test on SNB-19 CNS it was > 95.9 µM; in the test on 786-0 renal it was 17.7 µM; in the test on M14 melanoma, 27.1 µM; in the test with NCI-H226 lung it was 64.1 µM. The TGI is > 100 µM in the test on SF-295 CNS, 24.2 µM in the test on RXF 393 renal, 14.1 µM with COLO 205 colon and > 55.3 µM with OVCAR-8 ovarian.

Take `CCC[CH2][Sn]1([CH2]CCC)[O]CC(CN2CCCC2)[O]1` (stereo not given): the GI50 with CAKI-1 renal is 5.6 µM; in the test on KM12 colon it was 16.1 µM; in the test on SNB-19 CNS, 18.7 µM; in the test on 786-0 renal, 14.4 µM; in the test with M14 melanoma, 16.9 µM; in the test on NCI-H226 lung it was 21.9 µM. Moreover, the GI50 with SF-295 CNS is 14.5 µM; in the test with RXF 393 renal, 22.4 µM; in the test on COLO 205 colon, 18.3 µM; in the test on OVCAR-8 ovarian, 14.1 µM. Moreover, the TGI in the test on CAKI-1 renal turned out to be 24.5 µM; in the test on KM12 colon, 36.4 µM; in the test on SNB-19 CNS, 44.3 µM; with 786-0 renal it was 28.2 µM; with M14 melanoma, 32.5 µM; in the test with NCI-H226 lung it was 64.1 µM. Moreover, the TGI in the test with SF-295 CNS came out at 28.2 µM; with RXF 393 renal it was 37.8 µM; in the test with COLO 205 colon, 34.3 µM; in the test on OVCAR-8 ovarian, 29.4 µM.

Take `N=C1C(c2nc3ccccc3s2)=C(O)CN1c1cc(C(F)(F)F)ccc1Cl`: the GI50 in the test with CAKI-1 renal was 4.7 µM; with KM12 colon, 20.5 µM; in the test with SNB-19 CNS, 60.6 µM; with 786-0 renal, 38.1 µM; in the test with M14 melanoma, 3.21 µM; in the test with NCI-H226 lung, 2.75 µM. The GI50 in the test with SF-295 CNS is 16.2 µM; in the test with RXF 393 renal it was 18 µM; in the test on COLO 205 colon it was 30.8 µM; in the test on OVCAR-8 ovarian, 32.9 µM. In addition, the TGI with CAKI-1 renal was 40.4 µM; in the test with KM12 colon it was > 100 µM; in the test with SNB-19 CNS, > 100 µM; in the test with 786-0 renal, > 100 µM; with M14 melanoma, 11.1 µM; with NCI-H226 lung it was 28.5 µM. Moreover, the TGI with SF-295 CNS, in the test on RXF 393 renal, in the test with COLO 205 colon and in the test with OVCAR-8 ovarian was > 100 µM each time.

For the molecule `CC(C)(C)c1ccc2c(c1)S(=O)(=O)Nc1ccccc1NS(=O)(=O)c1cc(C(C)(C)C)ccc1OCCOCCOCCO2`, the TGI with CAKI-1 renal, in the test on KM12 colon, in the test on SNB-19 CNS, in the test on 786-0 renal, with M14 melanoma and in the test on NCI-H226 lung was > 100 µM each time. In addition, the TGI in the test on SF-295 CNS, with RXF 393 renal, in the test on COLO 205 colon and with OVCAR-8 ovarian was > 100 µM each time.

`COc1cc(-c2ccc3c(c2)NC(=O)/C3=C\c2ccc[nH]2)ccc1O`: the GI50 in the test on CAKI-1 renal is 0.255 µM; with KM12 colon it was 0.0214 µM; in the test with SNB-19 CNS, 0.0277 µM; with 786-0 renal, 0.0385 µM; in the test on M14 melanoma, 0.0176 µM; in the test on NCI-H226 lung, 2.06 µM. For the same molecule, the GI50 in the test with SF-295 CNS is 0.0479 µM; in the test on RXF 393 renal, 0.0234 µM; with COLO 205 colon, 0.467 µM; in the test with OVCAR-8 ovarian, 0.0252 µM. Also, the TGI in the test on CAKI-1 renal is > 12.9 µM; in the test on KM12 colon it was > 50 µM; in the test with SNB-19 CNS, > 50 µM; in the test with 786-0 renal it was > 21.1 µM; with M14 melanoma, > 50 µM; with NCI-H226 lung, > 50 µM. Also, the TGI in the test on SF-295 CNS is > 22.6 µM; in the test with RXF 393 renal it was 1.66 µM; with COLO 205 colon, > 50 µM; in the test with OVCAR-8 ovarian it was > 50 µM.

Turning to `CCOC(=O)CC1(C(=O)OCC)c2[nH]c3ccccc3c2CCN1Cc1ccccc1` (stereo not given), the TGI in the test with CAKI-1 renal is 99.2 µM; in the test on KM12 colon, 40.1 µM; in the test on SNB-19 CNS it was > 100 µM; in the test on 786-0 renal, 31.8 µM; in the test on M14 melanoma, 35.8 µM; in the test on NCI-H226 lung it was 35.5 µM. Besides, the TGI amounted to 32.8 µM in the test with SF-295 CNS, 32.7 µM in the test on RXF 393 renal, 34.3 µM in the test on COLO 205 colon and 78.7 µM in the test with OVCAR-8 ovarian.

In the case of `COC1(OC)C2(Cl)C(Cl)=C(Cl)C1(Cl)C1C=CC=CC12` (stereo not given), the TGI in the test with CAKI-1 renal, in the test with KM12 colon, in the test on SNB-19 CNS, with 786-0 renal, in the test on M14 melanoma and in the test on NCI-H226 lung was > 100 µM each time. The TGI in the test on SF-295 CNS, in the test with RXF 393 renal, in the test with COLO 205 colon and with OVCAR-8 ovarian was > 100 µM each time.

With `NC(N)=N/N=C(\c1nc2ccc([N+](=O)[O-])cc2[nH]c1=O)C(O)c1ccc([N+](=O)[O-])cc1` (stereo not given), the TGI in the test with CAKI-1 renal, with KM12 colon, in the test with SNB-19 CNS, in the test on 786-0 renal, in the test with M14 melanoma and in the test with NCI-H226 lung was > 100 µM in each case. The TGI with SF-295 CNS, with RXF 393 renal, in the test on COLO 205 colon and in the test with OVCAR-8 ovarian was > 100 µM throughout.

For `NP(=O)(Oc1c2occc2cc2ccc(=O)oc12)N(CCCl)CCCl` (stereo not given), the TGI in the test with CAKI-1 renal, in the test on KM12 colon, in the test with SNB-19 CNS, with 786-0 renal, in the test on M14 melanoma and with NCI-H226 lung was > 100 µM in each case. In addition, the TGI with SF-295 CNS, with RXF 393 renal, with COLO 205 colon and in the test with OVCAR-8 ovarian was > 100 µM each time.
